According to article PMC10630888, “Nuclear ERK1/2 signaling potentiation enhances neuroprotection and cognition via Importinα1/KPNA2” (EMBO Molecular Medicine, 2023):

Legend:
cleaved caspase-3 [1] = experiment: Cleaved caspase-3 in striatum, 3-NP model with RB5; type: in vivo, mouse; settings: peptide 20 mg/kg i.p. twice a day plus 3-NP 50 mg/kg i.p. once a day, 7 days; individual mice
From the text: (§1) In ex‐vivo and in‐vivo immunofluorescence experiments, the number of p‐S6 or p‐AcH3 immunoreactive neurons among NeuN‐positive neurons was counted in 2–3 consecutive striatal sections per mouse in four fields per section. Caspase 3‐positive cells were quantified among NeuN‐positive neurons in each slide and expressed as percentage (ratio between caspase‐3‐positive cells and total NeuN‐positive neurons) for each field acquired through the slide. The number of cells showing mutant Huntingtin inclusions were expressed as a percentage of mutant Huntingtin‐positive cells among DAPI‐positive cells.

cleaved caspase-3 [2] = experiment: Cleaved caspase-3 in striatum of zQ175 females after RB5; type: in vivo, mouse; settings: RB5 for 9 days
Protocol: (§2) Immunofluorescence was performed as described in Papale et al ([2016]). Briefly, 1 h after blocking in 5% normal goat serum, slices were incubated overnight at 4°C with the following primary antibodies: anti‐phospho (Ser10)‐acetylated (Lys14) histone H3 (1:1,000, Millipore), anti‐phospho‐S6 ribosomal protein (Ser235/236) (1:200, Cell Signaling Technology) anti‐phospho‐S6 ribosomal protein (Ser240/244) (1:200, Cell Signaling), cleaved caspase‐3 (1:200, Cell Signaling Technology), anti‐mutant Huntingtin (1:100, Developmental Studies Hybridoma Bank, University of Iowa, #MW8), and NeuN (1:1,000, Millipore). […]
as §1, with “cells. […]” for “cells.”

mutant huntingtin (mHtt) = experiment: Mutant huntingtin inclusions in striatum of zQ175 females after RB5; type: in vivo, mouse; settings: RB5 for 9 days
Protocol: as §2
as §1, with “cells. […]” for “cells.”

[3] = system: phospho-ERK1/2 in HEK293 cells; experiment: phospho-ERK1/2 immunofluorescence (nuclear) in HEK293 cells; type: cell-based; settings: HEK293, siRNA 200 nM 24 h, then RB5 50 μM 15 min
Protocol: For Western blot and immunofluorescence analysis, 0.6 × 10^6 HEK293 cells were seeded in 6‐well plates in the presence of DMEM High Glucose GlutaMax (Thermo Fisher Scientific) containing 10% Foetal Bovine Serum (FBS, Thermo Fisher Scientific) and 100 U/ml penicillin/streptomycin (Thermo Fisher Scientific). For Western blot analysis to assess ERK1/2 and phospho‐ERK1/2 levels, cells were serum starved for 24 h and incubated with RB5 50 μM or FBS 20% for 15 min at 37°C. To assess JNK and phospho‐JNK levels, cells were incubated with RB5 50 μM or anisomycin 5 μM for 30 min at 37°C. For immunofluorescence analysis, cells were serum‐starved for 24 h and incubated with 50 μM RB5 or 20% FBS for 15 min at 37°C.
After rinsing in PBS, cells were fixed in 4% PFA and permeabilized with increasing concentrations of methanol (33, 50, 75, and 95% in PBS, 2 min each at room temperature), followed by 100% methanol for 10 min at −20°C. […] The mean fluorescence intensity in the nucleus was calculated automatically by Fiji‐ImageJ software in 8–10 fields per slide. […]

pAcH3 = experiment: Striatal pAcH3 immunofluorescence 1 h after single injection; type: in vivo, mouse; settings: single injection 20 mg/kg i.p., individual mice
Protocol: Immunofluorescence was performed as described in Papale et al ([2016]). Briefly, 1 h after blocking in 5% normal goat serum, slices were incubated overnight at 4°C with the following primary antibodies: anti‐phospho (Ser10)‐acetylated (Lys14) histone H3 (1:1,000, Millipore), anti‐phospho‐S6 ribosomal protein (Ser235/236) (1:200, Cell Signaling Technology) anti‐phospho‐S6 ribosomal protein (Ser240/244) (1:200, Cell Signaling), cleaved caspase‐3 (1:200, Cell Signaling Technology), anti‐mutant Huntingtin (1:100, Developmental Studies Hybridoma Bank, University of Iowa, #MW8), and NeuN (1:1,000, Millipore). Corresponding secondary antibodies (Alexa Fluor 546 conjugated anti‐mouse (1:200, Thermo Fisher Scientific), Alexa Fluor 488 conjugated anti‐rabbit (1:500, Thermo Fisher Scientific) and Pacific Blue goat anti‐mouse (1:200, Thermo Fisher Scientific) were incubated at room temperature for 1 h. Sections stained for mutant Huntingtin were incubated with DAPI for 20 min. Sections were subsequently mounted with fluorescent mounting medium (DAKO). Single and double‐labeled images ([…]) were obtained at 40× magnification from the striatum using a laser scanning confocal microscope (Leica SP2) equipped with the corresponding lasers and appropriate filter sets to avoid the crosstalk between the fluorochromes.
as §1

NOR memory = experiment: Novel object recognition test (NOR); type: in vivo, mouse; settings: mice, single systemic administration, 20 mg/kg i.p.
Protocol: NOR was performed as previously described (d'Isa et al, [2014]). Briefly, the test was performed in an open square box placed in a quiet room with dim light. The objects used were parallelepipeds in metal and glass vials filled with water. The protocol required 3 days and it was performed as follows.
Day 1: mice were individually placed in the empty arena for 5 min to familiarize with it and to measure their anxiety (thigmotaxis trial). The percentage of thigmotaxis is calculated as the time spent in the peripheral zone out of the total time spent in the arena (300 s.). Animals showing a thigmotaxis > 90% are discarded from the sample because considered biased for anxiety. Day 2: mice were placed into the arena for 10 min, where they were allowed to explore two identical objects (training trial). The amount of time spent by mice exploring each object was scored. […] Times of exploration for the familiar object and for the novel object were recorded. The discrimination index (D.I.), defined as the difference between the exploration time for the novel object and the one for the familiar object, divided by total exploration time, was calculated. The sessions were recorded with the video tracking software SMART (Panlab, Barcelona, Spain). […]

GRKKRRQRRRPPQGGGGGEPRRTEGVGPGVPGEVEMVKGQPFDV [RB5, six D-amino acids, acetylated N-terminus]
Cleaved caspase-3-positive cells among NeuN-positive neurons (cleaved caspase-3 [1]): significantly reduced neuronal death
Preapoptotic marker caspase-3 in striatum (cleaved caspase-3 [2]): very significant reduction
mHtt aggregation in striatum (mutant huntingtin (mHtt)): insufficient to attenuate the mHtt aggregation
ERK1/2 activation (nuclear phospho-ERK1/2) after KPNA2 or IPO7 downregulation [3]: failed to induce ERK1/2 activation
pAcH3 positive neurons in striatum (pAcH3; ERK1+/+ (WT) mice): enhanced pERK and pAcH3 in WT
pAcH3 positive neurons in striatum (pAcH3; ERK1-/- mice): not in ERK1 KO mice
pAcH3 positive neurons in striatum (pAcH3; 1 h): selectively activated
Persistence of NOR memory (NOR memory): over 120 h
